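Tested at 5 concentrations; 48 h exposure; 96-well plates; endpoints linearly interpolated, else capped at highest concentration. Here, GI50 denotes the concentration required for 50% inhibition of growth.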 Active and inactive are the calls of the source. Rule as the data show it: active = GI50 up to about 1.1 µM and inactive = higher.
Key:
Assay in all cases: inhibition of tumour cell growth, NCI panel, 48 h
SF-539 = tested on: SF-539
SN12C = tested on: SN12C
HCC 2998 = tested on: HCC 2998
HT-29 = tested on: HT-29
EKVX = tested on: EKVX
RXF 393 = tested on: RXF 393
SF-268 = tested on: SF-268
KM12 = tested on: KM12
DMS-273 = tested on: DMS-273
HCT-15 = tested on: HCT-15
UO-31 = tested on: UO-31
NCI-H522 = tested on: NCI-H522
SK-MEL-28 = tested on: SK-MEL-28
786-0 = tested on: 786-0
SW-620 = tested on: SW-620
UACC-257 = tested on: UACC-257
A498 = tested on: A498
ACHN = tested on: ACHN
HL-60 = tested on: HL-60

Row | Structure (SMILES) | GI50 (SF-539) | GI50 (SN12C) | GI50 (HCC 2998) | GI50 (HT-29) | GI50 (EKVX) | GI50 (RXF 393) | GI50 (SF-268) | GI50 (KM12) | GI50 (DMS-273) | GI50 (HCT-15) [µM] | GI50 (UO-31) | GI50 (NCI-H522) | GI50 (SK-MEL-28) | GI50 (786-0) | GI50 (SW-620) | GI50 (UACC-257) | GI50 (A498) | GI50 (ACHN) | GI50 (HL-60)
1 | S=P(N1CCCC1)(N1CC1)N1CC1 | > 100 µM (inactive) | > 100 µM (inactive) | > 100 µM (inactive) | > 100 µM (inactive) | > 100 µM (inactive) | > 100 µM (inactive) | > 100 µM (inactive) | > 100 µM (inactive) | > 100 µM (inactive) | > 100 | > 100 µM (inactive) | 83.9 µM (inactive) | > 100 µM (inactive) | > 100 µM (inactive) | > 100 µM (inactive) | > 100 µM (inactive) | > 100 µM (inactive) | 71.6 µM (inactive) | 56.2 µM (inactive)
2 | NC1=NN(c2ccccc2)C(=O)C1C(=O)CCC(=O)Nc1cccc(C(F)(F)F)c1 (stereo not drawn) | > 100 µM (inactive) | > 100 µM (inactive) | > 100 µM (inactive) | > 100 µM (inactive) | > 100 µM (inactive) | > 100 µM (inactive) | > 100 µM (inactive) | > 100 µM (inactive) | > 100 µM (inactive) | 30.8 | > 100 µM (inactive) | – | > 100 µM (inactive) | > 100 µM (inactive) | 42.6 µM (inactive) | > 100 µM (inactive) | – | 23.1 µM (inactive) | > 100 µM (inactive)
3 | C/C(CN1C(=O)c2ccccc2C1=O)=N\NS(=O)(=O)c1ccc(Br)cc1 | > 100 µM (inactive) | > 100 µM (inactive) | > 100 µM (inactive) | > 100 µM (inactive) | > 100 µM (inactive) | > 100 µM (inactive) | > 100 µM (inactive) | > 100 µM (inactive) | > 100 µM (inactive) | > 100 | > 100 µM (inactive) | > 100 µM (inactive) | > 100 µM (inactive) | > 100 µM (inactive) | > 100 µM (inactive) | > 100 µM (inactive) | > 100 µM (inactive) | > 100 µM (inactive) | > 100 µM (inactive)
4 | CC1=CC2C(=O)N(c3ccccc3)C(=O)C2CC1n1[nH]c(=O)n(Cc2ccccc2)c1=O (stereo not drawn) | > 100 µM (inactive) | > 100 µM (inactive) | > 100 µM (inactive) | > 100 µM (inactive) | > 100 µM (inactive) | > 100 µM (inactive) | > 100 µM (inactive) | > 100 µM (inactive) | > 100 µM (inactive) | > 100 | > 100 µM (inactive) | > 100 µM (inactive) | > 100 µM (inactive) | > 100 µM (inactive) | > 100 µM (inactive) | > 100 µM (inactive) | > 100 µM (inactive) | > 100 µM (inactive) | > 100 µM (inactive)
5 | N#CC(NNC(=O)c1ccccc1O)c1ccc(O)cc1 (stereo not drawn) | 3.78 µM (inactive) | 18.6 µM (inactive) | – | 28.1 µM (inactive) | – | 1.48 µM (inactive) | 1.79 µM (inactive) | 4.94 µM (inactive) | 3.32 µM (inactive) | 8.63 | 2.3 µM (inactive) | 12.8 µM (inactive) | > 100 µM (inactive) | 8.02 µM (inactive) | 26.7 µM (inactive) | 15.6 µM (inactive) | – | 2.33 µM (inactive) | 5.32 µM (inactive)
6 | CC(C)(C)/N=C1/CC(C)(C)c2ccccc2/C(=N\c2ccccc2)S1 | 60.4 µM (inactive) | 29.4 µM (inactive) | 35.2 µM (inactive) | 35 µM (inactive) | 55.5 µM (inactive) | 21.4 µM (inactive) | 28.2 µM (inactive) | 26.8 µM (inactive) | 32.1 µM (inactive) | 37.2 | 31.8 µM (inactive) | 15.2 µM (inactive) | 37.4 µM (inactive) | 39.4 µM (inactive) | 44 µM (inactive) | 30 µM (inactive) | 43 µM (inactive) | 28.2 µM (inactive) | 12.2 µM (inactive)
7 | O=C(CC(=O)n1nc(-c2ccccc2)c(/N=N/c2ccccc2Cl)c1-c1ccccc1)Nc1ccc(Cl)cc1 | > 100 µM (inactive) | > 100 µM (inactive) | > 100 µM (inactive) | > 54.6 µM (inactive) | > 100 µM (inactive) | > 100 µM (inactive) | > 100 µM (inactive) | > 100 µM (inactive) | > 64.3 µM (inactive) | > 43 | > 100 µM (inactive) | > 100 µM (inactive) | > 100 µM (inactive) | > 52.7 µM (inactive) | > 48.6 µM (inactive) | > 83.2 µM (inactive) | > 100 µM (inactive) | > 100 µM (inactive) | > 42.8 µM (inactive)
8 | Cc1nc2ccccc2nc1NS(=O)(=O)c1ccc(N)cc1 | > 100 µM (inactive) | > 100 µM (inactive) | > 100 µM (inactive) | > 100 µM (inactive) | > 100 µM (inactive) | > 100 µM (inactive) | > 100 µM (inactive) | > 100 µM (inactive) | > 100 µM (inactive) | > 100 | > 100 µM (inactive) | > 100 µM (inactive) | > 100 µM (inactive) | > 100 µM (inactive) | > 100 µM (inactive) | > 100 µM (inactive) | > 100 µM (inactive) | > 100 µM (inactive) | > 100 µM (inactive)
9 | Nc1nc(O)c([N+](=O)[O-])c(NCCOCP(=O)(O)O)n1 | > 100 µM (inactive) | > 100 µM (inactive) | > 100 µM (inactive) | > 100 µM (inactive) | > 100 µM (inactive) | > 100 µM (inactive) | > 100 µM (inactive) | > 100 µM (inactive) | > 100 µM (inactive) | – | > 100 µM (inactive) | > 100 µM (inactive) | > 100 µM (inactive) | > 100 µM (inactive) | > 100 µM (inactive) | > 100 µM (inactive) | – | > 100 µM (inactive) | > 100 µM (inactive)
10 | CC(C)C(Sc1nc(-c2ccccc2)c(-c2ccccc2)[nH]1)C(=O)N/N=C/c1ccc(Cl)cc1 (stereo not drawn) | 21.1 µM (inactive) | 17.5 µM (inactive) | – | 14.9 µM (inactive) | 22.1 µM (inactive) | – | 20.9 µM (inactive) | 19.8 µM (inactive) | 18.2 µM (inactive) | 17.5 | 19.5 µM (inactive) | 20.7 µM (inactive) | 21.8 µM (inactive) | 21.6 µM (inactive) | 26.2 µM (inactive) | 21 µM (inactive) | 22 µM (inactive) | 31.9 µM (inactive) | 26.3 µM (inactive)
11 | O=c1[nH]c(=O)n(C2CC(O)C(CO)O2)cc1COCC(F)(F)F (stereo not drawn) | > 100 µM (inactive) | > 100 µM (inactive) | > 100 µM (inactive) | > 100 µM (inactive) | > 100 µM (inactive) | > 100 µM (inactive) | > 100 µM (inactive) | > 100 µM (inactive) | > 100 µM (inactive) | – | > 100 µM (inactive) | > 100 µM (inactive) | – | > 100 µM (inactive) | > 100 µM (inactive) | > 100 µM (inactive) | > 100 µM (inactive) | > 100 µM (inactive) | > 100 µM (inactive)
12 | O=C(Nc1cc(Cl)ccc1Cl)c1cc2ccccc2oc1=O | > 100 µM (inactive) | 75.9 µM (inactive) | – | > 100 µM (inactive) | > 100 µM (inactive) | 37.2 µM (inactive) | – | > 100 µM (inactive) | 98.2 µM (inactive) | > 100 | – | > 100 µM (inactive) | > 100 µM (inactive) | 51.8 µM (inactive) | > 100 µM (inactive) | 97.3 µM (inactive) | – | 39.3 µM (inactive) | > 100 µM (inactive)
13 | CCP(C)(=O)CC | > 100 µM (inactive) | > 100 µM (inactive) | > 100 µM (inactive) | > 100 µM (inactive) | > 100 µM (inactive) | > 100 µM (inactive) | > 100 µM (inactive) | > 100 µM (inactive) | > 100 µM (inactive) | > 100 | > 100 µM (inactive) | – | > 100 µM (inactive) | > 100 µM (inactive) | > 100 µM (inactive) | > 100 µM (inactive) | – | > 100 µM (inactive) | > 100 µM (inactive)
14 | O=C1C[C@H]2CC3(CC[C@H]2CN1)OCCO3 | > 100 µM (inactive) | > 100 µM (inactive) | > 100 µM (inactive) | > 100 µM (inactive) | > 100 µM (inactive) | > 100 µM (inactive) | > 100 µM (inactive) | > 100 µM (inactive) | > 100 µM (inactive) | > 100 | > 100 µM (inactive) | > 100 µM (inactive) | > 100 µM (inactive) | > 100 µM (inactive) | > 100 µM (inactive) | > 100 µM (inactive) | > 100 µM (inactive) | – | > 100 µM (inactive)
15 | c1ccc(SCCCC(Sc2ccccc2)Sc2ccccc2)cc1 | > 100 µM (inactive) | > 100 µM (inactive) | > 100 µM (inactive) | – | > 100 µM (inactive) | > 100 µM (inactive) | > 100 µM (inactive) | > 100 µM (inactive) | > 100 µM (inactive) | > 100 | > 100 µM (inactive) | – | > 100 µM (inactive) | > 100 µM (inactive) | > 100 µM (inactive) | > 100 µM (inactive) | > 100 µM (inactive) | > 100 µM (inactive) | > 100 µM (inactive)
16 | Cc1ccccc1C(=O)c1ccccc1O | > 100 µM (inactive) | > 100 µM (inactive) | > 100 µM (inactive) | > 100 µM (inactive) | > 100 µM (inactive) | > 100 µM (inactive) | > 100 µM (inactive) | > 100 µM (inactive) | > 100 µM (inactive) | > 100 | 24.6 µM (inactive) | – | > 100 µM (inactive) | > 100 µM (inactive) | > 100 µM (inactive) | > 100 µM (inactive) | > 100 µM (inactive) | > 100 µM (inactive) | > 100 µM (inactive)

Reference: ChEMBL document CHEMBL1201862, “PubChem BioAssay data set” (2004)
